Values joined by “and” are separate entries in the source; they are usually repeats but may differ in a detail not shown here. Identical values can stand only once.
Tests used:
GK rats [1] = assay: 13C-labeled glucose tolerance test (tissue 13C-glycogen); assay type: in vivo; details: GK rat, 13C-GTT after sub-chronic treatment; vs MK-8666 or vehicle
Procedure: On day 0, GK rats were selected and sorted into treatment groups based on ambient glucose measured via glucometer at 1 h post lights on. MK-8666 at 30 mg/kg was administered in feed (Research Diets) and provided ad lib on day 0. On days 1–6, rats were dosed via oral gavage (PO) at a volume of 5 ml/kg daily at approximately 12:30 PM with either vehicle (0.5% methylcellulose) or AP1 at 10 mg/kg. Rats from the MK-8666 group were administered vehicle PO at this time. On day 7, ambient glucose was measured 1 hr post lights on and food was removed. After approximately 5 hrs fasting, glucose was measured at time = - 60 min, followed by PO administration of vehicle or AP1. […] Blood glucose was then measured at t = 20, 40, 60, 120 minutes post challenge. […]
Glycogen is a primary site of glucose disposal in both liver and muscle; however glycogen was not preserved in our tissue extraction protocol. To quantify tissue 13C-glycogen, a separate piece of tissue from each sample was analyzed. […] The resulting glycogen-derived glucose solution was analyzed for total glucose using a glucose oxidase / horseradish peroxidase assay kit and fluorescence-based product detection according to the manufacturers’ instructions (BioVision Glycogen Assay Kit, Milpitas, CA).

GK rats [2] = assay: Endogenous glucose production in vivo (2H/13C dual tracer); parameters: species or system rat;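 for Glucose production, EGP Total: micromoles per kg body weight per minute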;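 for Glucose production, Glycerol: absolute flux in micromoles per kg per minute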;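 for Glucose production, Glycogen: absolute flux in micromoles per kg per minute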;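 for Glucose production, TCA: absolute flux in micromoles per kg per minute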
Procedure: To evaluate the effects of the GPR40 partial and AgoPAM compounds on EGP in vivo, a 2H/13C dual tracer approach was used to calculate EGP and its contributing sources. Following the chronic treatments described above, 0.9% NaCl salinated deuterium oxide (D2O, Sigma-Aldrich, St. Louis, MO) was administered to all animals via intraperitoneal (IP) injection at dose volume of 20 ml/kg at 1 hr post lights on. Animals were then placed in clean cages and food was removed. After a 5 hour fast, blood glucose was measured and animals were dosed with 50 mg/kg [U-13C] glucose (Sigma-Aldrich, St. Louis, MO) IP at 5 ml/kg. Blood was collected via tail snip at time points from 60–150 min post treatment to measure blood glucose (via glucometer) as well as endogenous (12C-glucose) and exogenous (13C-glucose) via GCMS. Following the last tail blood collection, rats were anesthetized with isoflurane and cardiac blood was collected into K2EDTA tubes (Becton, Dickinson and Co., Franklin Lakes, NJ).
The serially collected blood samples were analyzed for 13C-glucose enrichment using GC-MS analysis. The % 13C glucose enrichments were then combined with the total glucose readings to calculate the concentration of 13C-glucose, and these values were modeled with a two-compartment model of whole body glucose metabolism to calculate the average EGP for the period from 0–150 minutes.
Terminal blood samples were analyzed for relative 2H enrichment in plasma glucose using the monoacetone glucose method. Briefly, samples were extracted with 70% perchloric acid at a ratio of 50 μl perchloric acid per 1 ml plasma and centrifuged at 25,000 rcf for 10 min at 4°C. The supernatant was collected and the pH was adjusted to 6–8 using aqueous KOH. The samples were then lyophilized overnight. To convert plasma glucose to monoacetone glucose (MAG), acetone and concentrated sulfuric acid were added to the lyophilized samples and stirred for 4 hours at room temperature. Water was then added and the pH adjusted to 2.0 with 3M Na2CO3. Samples were stirred moderately for 18 hours at room temperature, the pH was adjusted to 7 with 3M Na2CO3, and the samples were completely dried by speed vacuum concentration. The resulting MAG samples were then extracted in hot ethyl acetate, dried overnight under a stream of N2 gas, and purified using Discovery DSC-18 SPE columns (6 ml, 1 g bed weight). For the SPE protocol, MAG samples were reconstituted in 3 ml water and passed over the columns which were pre-washed with 2 ml methanol. The columns were rinsed twice with 1 ml water and the MAG was eluted with 5% acetonitrile. The acetonitrile eluent was then transferred to a glass scintillation vial and freeze dried. Purified MAG samples were solubilized in 180 μl 90% acetonitrile for 2H NMR analysis which was performed using the lock channel of a 950 MHz Bruker NMR spectrometer (David H Murdock Research Institute, DHMRI Kannapolis, NC). Acquisition parameters were as follows: 90° pulse, D1 = 1 s, 1H broadband decoupling, NS = 3600, acquisition time ~ 1 hr. The 2H NMR spectra of the MAG samples were then analyzed using Matlab (The Mathworks Inc, Natick, MA) to model the NMR peaks with a Lorentzian lineshape, and the results were used to calculate integrals for each of the seven NMR resonances in the MAG spectrum. Peaks 2, 5, and 6s were then used to calculate the relative sources of EGP (i.e. gluconeogenesis from TCA cycle substrates, glucose production from triose phosphates, and glycogenolysis) and these values were combined with the total EGP measurement to calculate absolute fluxes of glucose production.

[3] = GK rats, 30 mpk, individual animal values (data for Fig 8), 30 mg/kg

COc1ccc(F)c(-c2ccc([C@@H]3CCc4ccc([C@H](C5CC5)[C@H](C)C(=O)O)cc4O3)cc2)c1 [AP1]
skeletal muscle 13C-glycogen levels (GK rats [1]): increased

Cc1cc(OCCCS(C)(=O)=O)cc(C)c1-c1cccc(COc2cc3c(cn2)[C@H]2[C@@H](C3)[C@@H]2C(=O)O)c1 [MK-8666]
endogenous glucose production (EGP) (GK rats [2]; GK rat, following chronic treatment): reduced
Glucose production, EGP Total (GK rats [2]; [3]): 47.3366 µmol/kg/min and 49.7015 µmol/kg/min and 23.1675 µmol/kg/min and 46.5921 µmol/kg/min and 49.3944 µmol/kg/min and 59.3105 µmol/kg/min and 53.4963 µmol/kg/min
Glucose production, Glycerol (GK rats [2]; [3]): 8.397 µmol/kg/min and 6.008 µmol/kg/min and 2.752 µmol/kg/min and 6.734 µmol/kg/min and 8.91 µmol/kg/min and 9 µmol/kg/min and 9.76 µmol/kg/min
Glucose production, Glycogen (GK rats [2]; [3]): 15.2782 µmol/kg/min and 19.9182 µmol/kg/min and 7.082 µmol/kg/min and 20.1227 µmol/kg/min and 18.1009 µmol/kg/min and 21.3139 µmol/kg/min and 17.6544 µmol/kg/min
Glucose production, TCA (GK rats [2]; [3]): 23.6618 µmol/kg/min and 23.7752 µmol/kg/min and 13.3332 µmol/kg/min and 19.7357 µmol/kg/min and 22.3838 µmol/kg/min and 28.9962 µmol/kg/min and 26.0816 µmol/kg/min

— article PMC5650142, “GPR40 partial agonists and AgoPAMs: Differentiating effects on glucose and hormonal secretions in the rodent” (PLoS ONE, 2017)
